Measured values published in ChEMBL document CHEMBL1909046, “DrugMatrix in vitro pharmacology data”.

Columns and labels:
B2 bradykinin receptor = target: T1, B2 bradykinin receptor (Homo sapiens, UniProt P30411); assay type: cell membranes, Membrane; conditions: chem-1; note: in other assays of this panel Not Active means under 50% inhibition at 10 µM
T1 sequence (P30411 whole entry): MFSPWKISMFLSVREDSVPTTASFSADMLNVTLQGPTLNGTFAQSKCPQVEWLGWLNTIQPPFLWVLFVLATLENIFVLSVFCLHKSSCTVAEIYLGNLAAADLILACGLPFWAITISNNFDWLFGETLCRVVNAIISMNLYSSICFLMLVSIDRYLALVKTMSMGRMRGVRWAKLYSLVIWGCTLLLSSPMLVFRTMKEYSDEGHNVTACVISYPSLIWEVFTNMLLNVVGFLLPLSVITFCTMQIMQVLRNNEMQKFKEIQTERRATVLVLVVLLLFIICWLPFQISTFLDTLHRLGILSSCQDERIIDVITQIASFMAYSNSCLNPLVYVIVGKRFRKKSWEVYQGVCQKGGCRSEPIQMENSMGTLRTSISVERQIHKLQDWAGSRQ

Calcitonin receptor = target: T2, Calcitonin receptor (Homo sapiens, UniProt P30988); assay type: cell membranes, Membrane; conditions: t47d; note: in other assays of this panel Not Active means under 50% inhibition at 10 µM
T2 sequence (P30988 whole entry): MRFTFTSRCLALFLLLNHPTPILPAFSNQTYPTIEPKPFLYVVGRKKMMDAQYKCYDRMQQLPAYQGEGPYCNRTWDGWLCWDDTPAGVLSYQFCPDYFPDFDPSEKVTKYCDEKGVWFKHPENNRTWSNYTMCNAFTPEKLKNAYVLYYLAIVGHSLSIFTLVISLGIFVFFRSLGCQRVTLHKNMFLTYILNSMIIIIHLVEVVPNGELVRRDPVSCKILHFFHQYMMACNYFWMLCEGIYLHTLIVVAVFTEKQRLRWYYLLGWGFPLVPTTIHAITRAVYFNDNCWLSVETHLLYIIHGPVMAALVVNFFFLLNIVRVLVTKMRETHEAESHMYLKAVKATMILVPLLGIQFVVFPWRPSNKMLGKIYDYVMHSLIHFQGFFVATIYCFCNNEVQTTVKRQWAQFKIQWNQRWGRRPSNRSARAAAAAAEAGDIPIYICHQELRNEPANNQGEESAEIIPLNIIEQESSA

[1] = target: 5-hydroxytryptamine receptor 2B (Homo sapiens, UniProt P41595); assay type: cell membranes, CHO-K1, Membrane; conditions: cho-k1; note: in other assays of this panel Not Active means under 50% inhibition at 10 µM
5-hydroxytryptamine receptor 2B, sequence (P41595 whole entry): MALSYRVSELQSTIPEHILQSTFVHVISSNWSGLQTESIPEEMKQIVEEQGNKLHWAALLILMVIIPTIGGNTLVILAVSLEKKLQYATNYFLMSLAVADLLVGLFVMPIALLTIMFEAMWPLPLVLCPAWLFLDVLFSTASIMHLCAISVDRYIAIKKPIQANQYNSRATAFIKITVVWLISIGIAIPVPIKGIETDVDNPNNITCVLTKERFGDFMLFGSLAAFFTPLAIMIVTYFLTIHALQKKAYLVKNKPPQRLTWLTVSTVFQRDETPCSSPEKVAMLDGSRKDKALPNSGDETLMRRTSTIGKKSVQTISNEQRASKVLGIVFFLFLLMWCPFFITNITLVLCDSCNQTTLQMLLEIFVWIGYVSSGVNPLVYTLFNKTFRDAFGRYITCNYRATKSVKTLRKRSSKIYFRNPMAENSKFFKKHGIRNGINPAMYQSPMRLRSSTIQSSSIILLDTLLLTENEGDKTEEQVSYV

[2] = DRUGMATRIX: Sigma2 radioligand binding (ligand: [3H] Ifenprodil); assay type: cell membranes, Rattus norvegicus, Wistar, Brain, Membrane; conditions: Not Active = under 50% inhibition at 10 µM
[3] = DRUGMATRIX: Calcium Channel Type L, Phenylalkylamine radioligand binding (ligand: [3H] (-)-Desmethoxyverapamil (D-888)); assay type: cell membranes, Rattus norvegicus, Wistar, Brain, Membrane; conditions: Not Active = under 50% inhibition at 10 µM
Carbonic anhydrase 2 = Carbonic anhydrase 2 (Homo sapiens, UniProt P00918); assay: DRUGMATRIX: Carbonic Anhydrase II enzyme inhibition (substrate: 4-Nitrophenyl acetate (4-NPA)); assay type: tissue-based, Erythrocyte; conditions: erythrocyte; Not Active = under 50% inhibition at 10 µM
[4] = target: Prostaglandin G/H synthase 1 (Homo sapiens, UniProt P23219); assay: biochemical; assay type: tissue-based, Platelet; conditions: platelet;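 note: inhibition of COX-1 enzyme activity, with arachidonic acid supplied as substrate; in other assays of this panel Not Active means under 50% inhibition at 10 µM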
Prostaglandin G/H synthase 1, sequence (P23219 whole entry): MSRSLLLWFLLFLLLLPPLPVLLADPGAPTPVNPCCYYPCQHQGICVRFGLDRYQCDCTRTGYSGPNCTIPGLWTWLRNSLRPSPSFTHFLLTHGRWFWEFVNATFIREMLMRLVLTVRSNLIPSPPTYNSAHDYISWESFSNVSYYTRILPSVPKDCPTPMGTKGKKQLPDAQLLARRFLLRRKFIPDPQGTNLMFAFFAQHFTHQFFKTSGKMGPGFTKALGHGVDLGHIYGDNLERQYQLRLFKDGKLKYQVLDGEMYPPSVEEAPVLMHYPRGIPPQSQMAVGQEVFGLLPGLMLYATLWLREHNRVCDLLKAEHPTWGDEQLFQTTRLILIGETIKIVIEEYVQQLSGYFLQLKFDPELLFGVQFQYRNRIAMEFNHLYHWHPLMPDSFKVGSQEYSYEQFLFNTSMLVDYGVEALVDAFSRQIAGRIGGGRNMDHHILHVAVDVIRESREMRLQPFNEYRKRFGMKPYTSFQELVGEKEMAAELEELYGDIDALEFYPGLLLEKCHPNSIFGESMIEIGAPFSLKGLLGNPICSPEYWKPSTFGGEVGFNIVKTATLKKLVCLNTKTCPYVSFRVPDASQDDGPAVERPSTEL

[5] = DRUGMATRIX: Phosphodiesterase PDE4 enzyme inhibition (substrate: [3H]cAMP + cAMP); conditions: u-937; Not Active = under 50% inhibition at 10 µM
[6] = DRUGMATRIX: Potassium Channel [KATP] radioligand binding (ligand: [3H] Glyburide); assay type: cell membranes, Membrane; conditions: hit-t15; Not Active = under 50% inhibition at 10 µM
Interstitial collagenase = target: T3, Interstitial collagenase (Homo sapiens, UniProt P03956); assay type: tissue-based, Rheumatoid synovial fibroblasts
T3 sequence (P03956 whole entry): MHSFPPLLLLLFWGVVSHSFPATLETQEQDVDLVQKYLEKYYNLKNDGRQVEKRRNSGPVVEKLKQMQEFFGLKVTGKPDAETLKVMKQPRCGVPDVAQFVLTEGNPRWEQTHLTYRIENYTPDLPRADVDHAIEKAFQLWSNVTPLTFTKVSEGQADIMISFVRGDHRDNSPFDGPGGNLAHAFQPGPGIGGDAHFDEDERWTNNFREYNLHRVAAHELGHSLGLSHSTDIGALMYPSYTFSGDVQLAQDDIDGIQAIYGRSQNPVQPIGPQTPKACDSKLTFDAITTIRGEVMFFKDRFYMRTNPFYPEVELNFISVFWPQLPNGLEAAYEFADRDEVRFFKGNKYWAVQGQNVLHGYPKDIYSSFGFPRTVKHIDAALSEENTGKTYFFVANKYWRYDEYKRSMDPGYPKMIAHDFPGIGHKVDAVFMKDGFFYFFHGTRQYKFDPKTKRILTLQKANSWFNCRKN

Adenosine receptor A3 = target: T4, Adenosine receptor A3 (Homo sapiens, UniProt P0DMS8); assay type: cell membranes, CHO-K1, Membrane; conditions: cho-k1
T4 sequence (P0DMS8 whole entry): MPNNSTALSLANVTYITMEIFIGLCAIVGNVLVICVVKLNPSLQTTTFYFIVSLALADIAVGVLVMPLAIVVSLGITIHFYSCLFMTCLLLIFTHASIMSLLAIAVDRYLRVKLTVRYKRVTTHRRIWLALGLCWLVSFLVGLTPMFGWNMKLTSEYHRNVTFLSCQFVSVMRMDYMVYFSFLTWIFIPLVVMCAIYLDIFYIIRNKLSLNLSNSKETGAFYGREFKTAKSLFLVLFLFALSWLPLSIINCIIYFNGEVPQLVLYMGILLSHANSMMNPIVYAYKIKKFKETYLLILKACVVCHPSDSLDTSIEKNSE

Estrogen receptor = target: T5, Estrogen receptor (Homo sapiens, UniProt P03372); conditions: sf9; note: in other assays of this panel Not Active means under 50% inhibition at 10 µM
T5 sequence (P03372 whole entry): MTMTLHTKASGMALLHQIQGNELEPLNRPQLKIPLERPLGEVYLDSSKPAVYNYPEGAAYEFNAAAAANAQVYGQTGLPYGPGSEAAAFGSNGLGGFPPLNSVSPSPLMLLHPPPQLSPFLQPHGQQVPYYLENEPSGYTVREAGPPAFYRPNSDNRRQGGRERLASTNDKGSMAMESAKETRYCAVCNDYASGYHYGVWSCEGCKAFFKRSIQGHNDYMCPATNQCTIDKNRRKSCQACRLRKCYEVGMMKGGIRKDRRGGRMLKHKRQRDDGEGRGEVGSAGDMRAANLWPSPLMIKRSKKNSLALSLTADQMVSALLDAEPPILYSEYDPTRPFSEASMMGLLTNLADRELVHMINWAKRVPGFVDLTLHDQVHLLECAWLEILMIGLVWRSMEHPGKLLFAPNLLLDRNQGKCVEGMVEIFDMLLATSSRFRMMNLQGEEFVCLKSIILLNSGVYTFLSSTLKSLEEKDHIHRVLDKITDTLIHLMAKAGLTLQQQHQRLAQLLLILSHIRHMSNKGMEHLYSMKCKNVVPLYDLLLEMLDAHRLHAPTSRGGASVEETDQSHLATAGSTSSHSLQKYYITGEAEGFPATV

C=C1C(=O)O[C@@H]2C3O[C@]3(C)CC/C=C(\C)CC[C@@H]12 (some centres undefined)
Not Active: IC50 (B2 bradykinin receptor) | IC50 (Calcitonin receptor) | IC50 [1] | IC50 [2] | Ki [2] | IC50 [3] | Ki [3] | IC50 (Carbonic anhydrase 2) | IC50 [4] | IC50 [5] | Ki [5] | IC50 [6] | Ki [6] | IC50 (Interstitial collagenase) | IC50 (Adenosine receptor A3) | IC50 (Estrogen receptor)

Brc1ccccc1 [BROMOBENZENE]
Not Active: IC50 (B2 bradykinin receptor) | IC50 (Calcitonin receptor) | IC50 [1] | IC50 [2] | Ki [2] | IC50 [3] | Ki [3] | IC50 (Carbonic anhydrase 2) | IC50 [4] | IC50 [5] | Ki [5] | IC50 [6] | Ki [6] | IC50 (Interstitial collagenase) | IC50 (Adenosine receptor A3) | IC50 (Estrogen receptor)

CC(=O)CCCCn1c(=O)c2c(ncn2C)n(C)c1=O [PENTOXIFYLLINE]
Not Active: IC50 (B2 bradykinin receptor) | IC50 (Calcitonin receptor) | IC50 [1] | IC50 [2] | Ki [2] | IC50 [3] | Ki [3] | IC50 (Carbonic anhydrase 2) | IC50 [4] | IC50 [5] | Ki [5] | IC50 [6] | Ki [6] | IC50 (Interstitial collagenase) | IC50 (Adenosine receptor A3) | IC50 (Estrogen receptor)

Cc1c(-c2ccccc2)oc2c(C(=O)OCCN3CCCCC3)cccc2c1=O [FLAVOXATE]
Not Active: IC50 (B2 bradykinin receptor) | IC50 (Calcitonin receptor) | IC50 [1] | IC50 [2] | Ki [2] | IC50 [3] | Ki [3] | IC50 (Carbonic anhydrase 2) | IC50 [4] | IC50 [5] | Ki [5] | IC50 [6] | Ki [6] | IC50 (Interstitial collagenase) | IC50 (Adenosine receptor A3) | IC50 (Estrogen receptor)
